Assay results as given in ChEMBL document CHEMBL4014354, “2'-Chloro,2'-fluoro Ribonucleotide Prodrugs with Potent Pan-genotypic Activity against Hepatitis C Virus Replication in Culture” (J Med Chem, 2017).

Experiments:
[1] = Cytotoxicity against human CEM cells assessed as inhibition of cell proliferation after 4 days by MTT assay; format: cell-based, CCRF-CEM
[2] = Cytotoxicity against African green monkey Vero cells assessed as inhibition of cell proliferation after 3 days by MTT assay; format: cell-based; settings: chlorocebus sabaeus
[3] = test system: Hepatitis C virus; assay: Antiviral activity against HCV genotype 1b harboring wild type NS5B infected in human HuH7 cells assessed as inhibition of viral RNA replication after 5 days by RT-PCR method; format: functional, cell-based, Hepacivirus hominis; settings: Huh-7, 120 h
[4] = Cytotoxicity against human HuH7 cells assessed as inhibition of cell proliferation after 4 days by MTS assay; format: cell-based, Huh-7
[5] = Cytotoxicity against human PBMC assessed as inhibition of cell proliferation after 5 days by MTT assay; format: cell-based
[6] = test system: Hepatitis C virus; assay: Antiviral activity against HCV genotype 2a/k infected in human HuH7 cells assessed as inhibition of viral RNA replication after 96 hrs by RT-PCR method; format: functional, cell-based, Hepacivirus hominis; settings: Huh-7, 96 h
[7] = test system: cytochrome c oxidase subunit 2 DNA (mitochondrial DNA) levels; assay: Mitochondrial toxicity in human HepG2 cells assessed as inhibition of cytochrome c oxidase subunit 2 DNA levels measured on day 14 by RT-PCR method; format: cell-based
[8] = test system: HepG2; assay: Mitochondrial toxicity in human HepG2 cells assessed as cytochrome c oxidase subunit 2 DNA levels at 10 uM measured on day 14 by RT-PCR method relative to nuclear beta-actin DNA levels; settings: hepg2, 10 µM
[9] = test system: cytochrome c oxidase subunit 2 DNA (mitochondrial DNA) levels; assay: Mitochondrial toxicity in human HepG2 cells assessed as inhibition of cytochrome c oxidase subunit 2 DNA levels at 50 uM measured on day 14 by RT-PCR method relative to nuclear beta-actin DNA levels; format: cell-based
[10] = test system: Hepatitis C virus; assay: Antiviral activity against HCV genotype 1a infected in human HuH7 cells assessed as inhibition of viral RNA replication after 96 hrs by RT-PCR method; format: functional, cell-based, Hepacivirus hominis; settings: subtype 1a, Huh-7, 96 h
[11] = test system: HepG2; assay: Mitochondrial toxicity in human HepG2 cells assessed as lactic acid production at 50 uM measured on day 14 by spectrophotometric method relative to control; format: cell-based; settings: hepg2, 50 µM
[12] = test system: Hepatitis C virus; assay: Antiviral activity against HCV genotype 3a infected in human HuH7 cells assessed as inhibition of viral RNA replication after 96 hrs by RT-PCR method; format: functional, cell-based, Hepacivirus hominis; settings: Huh-7, 96 h
[13] = test system: Hepatitis C virus; assay: Antiviral activity against HCV genotype 4 infected in human HuH7 cells assessed as inhibition of viral RNA replication after 96 hrs by RT-PCR method; format: functional, cell-based, Hepacivirus hominis; settings: genotype 4, Huh-7, 96 h
[14] = test system: Hepatitis C virus; assay: Antiviral activity against HCV genotype 1b infected in human HuH7 cells assessed as inhibition of viral RNA replication after 96 hrs by RT-PCR method; format: functional, cell-based, Hepacivirus hominis; settings: Huh-7, 96 h
[15] = test system: HepG2; assay: Mitochondrial toxicity in human HepG2 cells assessed as cytochrome c oxidase subunit 2 DNA levels at 50 uM measured on day 14 by RT-PCR method relative to nuclear beta-actin DNA levels; format: cell-based; settings: hepg2, 50 µM
[16] = test system: HepG2; assay: Cytotoxicity against human HepG2 cells assessed as inhibition of nuclear DNA levels measured on day 14 by RT-PCR method; settings: HepG2, 336 h
[17] = test system: nuclear DNA levels; assay: Cytotoxicity against human HepG2 cells assessed as inhibition of nuclear DNA levels at 50 uM measured on day 14 by RT-PCR method relative to nuclear beta-actin DNA levels; format: cell-based; settings: read-out: INH
[18] = test system: cytochrome c oxidase subunit 2 DNA (mitochondrial DNA) levels; assay: in vitro; settings: human, HepG2 cells
[19] = test system: nuclear DNA levels; assay: in vitro; settings: human, HepG2 cells
[20] = test system: HepG2; assay: Mitochondrial toxicity in human HepG2 cells assessed as lactic acid production at 10 uM measured on day 14 by spectrophotometric method relative to control; format: cell-based; settings: hepg2, 10 µM
[21] = test system: Hepatitis C virus; assay: Antiviral activity against HCV genotype 2b infected in human HuH7 cells assessed as inhibition of viral RNA replication after 96 hrs by RT-PCR method; format: functional, cell-based, Hepacivirus hominis; settings: Huh-7, 96 h
[22] = Inhibition of human DNA polymerase gamma using 5' end radiolabeled 24nt DNA/36nt DNA as primer/template after 120 mins by PAGE analysis
[23] = target: DNA polymerase beta (Homo sapiens, UniProt P06746); assay: Inhibition of human DNA polymerase beta using 5' end radiolabeled 24nt DNA/48nt DNA as primer/template after 5 mins by PAGE analysis
[24] = in vitro; settings: human, liver microsomes
Description: Clearance in human liver microsomes at 1 uM by LC-MS/MS analysis

[25] = in vitro; settings: human, liver microsomes; remark: listed apart in the source
Description: Half life in human liver microsomes at 1 uM by LC-MS/MS analysis

[26] = in vitro; settings: human, liver microsomes; remark: listed apart in the source
Description: Metabolic stability in human liver microsomes assessed as parent compound remaining at 1 uM at 60 mins by LC-MS/MS analysis

[27] = Inhibition of RNA polymerase 2 isolated from human HeLa cell nuclear extract assessed as decrease in incorporation of P32-alpha-CTP after 2 hrs by scintillation counting method; format: cell-free

SMILES | CC50 at 96 h [1] [µM] | CC50 at 72 h [2] [µM] | EC50 [3] [µM] | EC90 [3] [µM] | CC50 at 96 h [4] [µM] | CC50 at 120 h [5] [µM] | other results
CC(C)OC(=O)[C@H](C)NP(=O)(OC[C@H]1O[C@@H](n2ccc(N)nc2=O)[C@@](F)(Cl)[C@@H]1O)Oc1ccccc1 (some centres undefined) | > 100 | > 100 | 0.1 | 0.3 | > 10 | > 100 | 
Nc1nc2c(ncn2[C@@H]2O[C@H](CO)[C@@H](O)[C@]2(F)Cl)c(=O)[nH]1 | > 100 | > 100 | 19 | 33 | > 33 | > 100 | 
Nc1ccn([C@@H]2O[C@H](CO)[C@@H](O)[C@]2(F)Cl)c(=O)n1 | > 100 | 8.4 | 0.3 | 0.9 | > 10 | 12 | 
CC(C)OC(=O)[C@H](C)NP(=O)(OC[C@H]1O[C@@H](n2cnc3c(=O)[nH]c(N)nc32)[C@@](F)(Cl)[C@@H]1O)Oc1ccccc1 (some centres undefined) | > 100 | > 100 | 0.3 | 0.8 | > 10 | > 100 | 
O=c1ccn([C@@H]2O[C@H](CO)[C@@H](O)[C@]2(F)Cl)c(=O)[nH]1 | > 100 | > 100 | > 100 | > 100 | > 100 | > 100 | IC50 [6]: > 60 µM; IC50 at 14 days [7]: > 50 µM; Activity [8]: 160%; inhibition at 14 days, 50 µM [9]: < 1%; IC50 [10]: > 60 µM; Activity [11]: 120%; IC50 [12]: > 60 µM; IC50 [13]: > 60 µM; IC50 [14]: > 60 µM; Activity [15]: 120%; IC50 [16]: > 50 µM; cytotoxicity at 14 days, 50 µM [17]: < 1%; inhibition at 14 days, 10 µM [18]: < 1%; cytotoxicity at 14 days, 10 µM [19]: 8.8%; Activity [20]: 85%; IC50 [21]: > 60 µM
C[C@@]1(O)[C@H](O)[C@@H](CO)O[C@H]1n1ccc(N)nc1=O | > 100 | > 100 | 1.7 | 6.5 | > 10 | > 100 | 
C[C@@]1(F)[C@H](O)[C@@H](CO)O[C@H]1n1ccc(=O)[nH]c1=O |  |  |  |  |  |  | IC50 [6]: > 100 µM; IC50 [10]: > 100 µM; IC50 [12]: > 100 µM; IC50 [13]: > 100 µM; IC50 [14]: > 100 µM; IC50 [21]: > 100 µM
Cc1cn([C@H]2CC[C@@H](COP(=O)(O)OP(=O)(O)OP(=O)(O)O)O2)c(=O)[nH]c1=O |  |  |  |  |  |  | IC50 [22]: 43 µM; IC50 [23]: 19 µM
Nc1ncnc2c1ccn2[C@@H]1O[C@H](CO)C(O)C1(F)Cl (single isomer, unassigned) |  |  | > 10 | > 10 | > 10 |  | 
CC(C)OC(=O)[C@H](C)NP(=O)(OC[C@H]1O[C@@H](n2cnc3c(N)ncnc32)C(F)(Cl)C1O)Oc1ccccc1 (single isomer, unassigned) | 36.3 | 53.9 | 0.6 | 2.1 | > 33 | 84.8 | 
Nc1ncnc2c1c(F)cn2[C@@H]1O[C@H](CO)C(O)C1(F)Cl (single isomer, unassigned) | 19.9 | 42.4 | > 10 | > 10 | > 10 | 82.6 | 
Nc1ncnc2c1c(I)cn2[C@@H]1O[C@H](CO)C(O)C1(F)Cl (single isomer, unassigned) | 7.3 | 11.5 | > 10 | > 10 | > 10 | 6.6 | 
CC(C)OC(=O)[C@H](C)NP(=O)(OC[C@H]1O[C@@H](n2ccc3c(N)ncnc32)C(F)(Cl)C1O)Oc1ccccc1 (single isomer, unassigned) | 69 | > 100 | > 10 | > 10 | > 10 | > 100 | 
CC(C)OC(=O)[C@H](C)NP(=O)(OC[C@H]1O[C@@H](n2cc(F)c3c(N)ncnc32)C(F)(Cl)C1O)Oc1ccccc1 (single isomer, unassigned) | 55.3 | 60.9 | > 10 | > 10 | > 10 | 99.7 | 
Nc1ncnc2c1ncn2[C@@H]1O[C@H](CO)C(O)C1(F)Cl (single isomer, unassigned) | > 100 | > 100 | > 10 | > 10 | > 10 | > 100 | 
CC(C)OC(=O)[C@H](C)NP(=O)(OC[C@H]1O[C@@H](n2cc(I)c3c(N)ncnc32)C(F)(Cl)C1O)Oc1ccccc1 (single isomer, unassigned) | 69.3 | > 100 | > 10 | > 10 | > 10 | > 100 | 
O=C(O)Cc1ccccc1Nc1c(Cl)cccc1Cl [DICLOFENAC] |  |  |  |  |  |  | microsomal CLint at 1 µM [24]: 156 µL/min/mg; half-life at 1 µM [25]: 8.9 min; remaining at 1 h, 1 µM [26]: 1.2%
Nc1ccn([C@@H]2CS[C@H](CO)O2)c(=O)n1 [LAMIVUDINE] |  |  |  |  |  |  | IC50 at 14 days [7]: > 10 µM
C[C@]12CC[C@H]3[C@@H](CCC4=CC(=O)CC[C@@]43C)[C@@H]1CC[C@@H]2O [TESTOSTERONE] |  |  |  |  |  |  | microsomal CLint at 1 µM [24]: 92 µL/min/mg; half-life at 1 µM [25]: 15 min; remaining at 1 h, 1 µM [26]: 6.3%
Nc1ccn([C@H]2CC[C@@H](CO)O2)c(=O)n1 [ZALCITABINE] |  |  |  |  |  |  | IC50 at 14 days [7]: < 10 µM; Activity [8]: 9.5%; IC50 [16]: < 10 µM; inhibition at 14 days, 10 µM [18]: 96%; cytotoxicity at 14 days, 10 µM [19]: 53%; Activity [20]: 330%
CC[C@H](C)[C@@H]1NC(=O)CNC(=O)[C@@H]2Cc3c([nH]c4cc(O)ccc34)[S+]([O-])C[C@@H](NC(=O)CNC1=O)C(=O)N[C@@H](CC(N)=O)C(=O)N1C[C@H](O)C[C@H]1C(=O)N[C@@H]([C@@H](C)[C@@H](O)CO)C(=O)N2 (stereo partly drawn) [alpha-Amanitin] |  |  |  |  |  |  | IC50 [27]: 0.0025 µM
